Source: the supplement of paper PMC11061612

What was measured:
[1] = test system: OC-314 (Ovarian Carcinoma); assay: Bliss excess, mean over the matrix (fraction); higher = more synergy
Outline: (§1)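 Bliss excess equals the observed combination effect minus the expected value EA + EB − EA·EB, where EA and EB are the effects of each agent alone. Combination Emax is the second-highest inhibition within the matrix. Inhibition was scaled from CellTiter-Glo 2.0 luminescence, with 0 set by vehicle wells and 1 by blank wells, after 72 hours of two-drug dosing of cells plated in 1536-well plates.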

[2] = test system: OVCAR-8 (Ovarian Carcinoma); assay: as above
Outline: as §1

[3] = test system: LU-139 (Small Cell Lung Carcinoma); assay: as above
Outline: as §1

[4] = test system: HO-1-u-1 (Oral Cavity Carcinoma); assay: as above
Outline: as §1

[5] = test system: TE-4 (Esophageal Squamous Cell Carcinoma); assay: combination Emax (second highest fraction inhibited in the dose matrix, 72 h); higher = more inhibition; extreme values may be limits of the assay
Outline: as §1

Mewo (Melanoma) = assay: as above
Outline: as §1

[6] = test system: NCI-H69 (Small Cell Lung Carcinoma); assay: as above
Outline: as §1

[7] = test system: OC-314 (Ovarian Carcinoma); assay: as above
Outline: as §1

[8] = test system: LoVo (Colorectal Carcinoma); assay: as above
Outline: as §1

[9] = test system: OVCAR-8 (Ovarian Carcinoma); assay: as above
Outline: as §1

COLO-829 (Melanoma) = assay: as above
Outline: as §1

[10] = test system: CAL-51 (Breast Carcinoma); assay: as above
Outline: as §1

HMV-II (Melanoma) = assay: as above
Outline: as §1

[11] = test system: SW1116 (Colorectal Carcinoma); assay: as above
Outline: as §1

[12] = test system: NCI-H747 (Colorectal Carcinoma); assay: as above
Outline: as §1

[13] = test system: HARA (Squamous Cell Lung Carcinoma); assay: as above
Outline: as §1

[14] = test system: MHH-PREB-1 (B-Cell Non-Hodgkin's Lymphoma); assay: as above
Outline: as §1

[15] = test system: PCI-30 (Head and Neck Carcinoma); assay: as above
Outline: as §1

[16] = test system: 8305C (Thyroid Gland Carcinoma); assay: as above
Outline: as §1

[17] = test system: RKO (Colorectal Carcinoma); assay: as above
Outline: as §1

Row | Compound | Bliss excess [1] | Bliss excess [2] | Bliss excess [3] | Bliss excess [4] | combination Emax [5] | combination Emax (Mewo (Melanoma)) | combination Emax [6] | combination Emax [7] | combination Emax [8] | combination Emax [9] | combination Emax (COLO-829 (Melanoma)) | combination Emax [10] | combination Emax (HMV-II (Melanoma)) | combination Emax [11] | combination Emax [12] | combination Emax [13] | combination Emax [14] | combination Emax [15] | combination Emax [16] | combination Emax [17]
1 | COc1cccc(OCCCN)c1-c1cc(Nc2cnc(C#N)cn2)n[nH]1 [Prexasertib] + C=CCn1c(=O)c2cnc(Nc3ccc(N4CCN(C)CC4)cc3)nc2n1-c1cccc(C(C)(C)O)n1 [AZD1775] (first compound max 1 µM, partner max 1 µM) | 0.0884 | 0.0937 | 0.0089 | 0.0122 | 0.813 | 0.599 | 0.955 | 0.98 | 0.894 | 0.998 | 0.237 | 0.95 | 0.708 | 0.63 | 0.746 | 0.984 | 0.977 | 0.894 | 0.718 | 0.974
2 | Cc1cc2ncnn2cc1Nc1ncc2c(n1)n(C1CCOCC1)c(=O)n2C [AZD7648] + C=CCn1c(=O)c2cnc(Nc3ccc(N4CCN(C)CC4)cc3)nc2n1-c1cccc(C(C)(C)O)n1 [AZD1775] (first compound max 10 µM, partner max 1 µM) | 0.0579 | 0.0102 | -0.0642 | 0.0946 | 0.431 | 0.427 | 0.389 | 0.567 | 0.732 | 0.81 | 0.214 | 0.864 | 0.521 | 0.295 | 0.55 | 0.797 | 0.823 | 0.375 | 0.7 | 0.678
3 | Cn1cnc2c(F)c(Nc3ccc(Br)cc3Cl)c(C(=O)NOCCO)cc21 [Selumetinib] + CCN(CCO)CCCOc1ccc2c(Nc3cc(CC(=O)Nc4cccc(F)c4)[nH]n3)ncnc2c1 [AZD2811] (first compound max 10 µM, 7x7, partner max 1 µM) | -0.0193 | 0.0121 | 0.0062 | 0.0038 | 0.422 | 0.444 | 0.548 | 0.425 | 0.445 | 0.246 | 0.506 | 0.479 | 0.717 | 0.534 | 0.793 | 0.409 | 0.134 | 0.233 | 0.438 | 0.838
4 | COc1nnc2ccc(N3CCC(c4ccc(OCCN5CCN(C)C(=O)[C@H]5C)cc4)CC3)nn12 [AZD5153] + CCN(CCO)CCCOc1ccc2c(Nc3cc(CC(=O)Nc4cccc(F)c4)[nH]n3)ncnc2c1 [AZD2811] (first compound max 1 µM, 7x7, partner max 1 µM) | -0.04 | -0.0131 | 0.0203 | -0.121 | 0.467 | 0.593 | 0.782 | 0.884 | 0.627 | 0.804 | 0.3 | 0.807 | 0.588 | 0.397 | 0.734 | 0.679 | 0.514 | 0.41 | 0.594 | 0.812
5 | CN(C)CCCOc1ccc(-c2ccc3ncc4c(c3c2)n(C2CCOCC2)c(=O)n4C)cn1 [AZD0156] + C[C@@H]1COCCN1C2=NC(=NC(=C2)C3(CC3)[S@](=N)(=O)C)C4=C5C=CNC5=NC=C4 [AZD6738] (first compound max 1 µM, 7x7, partner max 10 µM) | 0.0095 | 0.0296 | -0.0323 | 0.0189 | 0.604 | 0.594 | 0.448 | 0.869 | 0.867 | 0.88 | 0.159 | 0.95 | 0.335 | 0.28 | 0.266 | 0.908 | 0.909 | 0.659 | 0.506 | 0.879
6 | CN(C)CCCOc1ccc(-c2ccc3ncc4c(c3c2)n(C2CCOCC2)c(=O)n4C)cn1 [AZD0156] + C=CCn1c(=O)c2cnc(Nc3ccc(N4CCN(C)CC4)cc3)nc2n1-c1cccc(C(C)(C)O)n1 [AZD1775] (first compound max 1 µM, partner max 1 µM) | -0.0141 | -0.0053 | -0.0479 | 0.0563 | 0.324 | 0.47 | 0.312 | 0.515 | 0.785 | 0.8 | 0.099 | 0.728 | 0.401 | 0.235 | 0.414 | 0.809 | 0.844 | 0.265 | 0.924 | 0.719
7 | COc1cccc(OCCCN)c1-c1cc(Nc2cnc(C#N)cn2)n[nH]1 [Prexasertib] + O=C(c1cc(Cc2n[nH]c(=O)c3ccccc23)ccc1F)N1CCN(C(=O)C2CC2)CC1 [Olaparib] (first compound max 1 µM, 7x7, partner max 10 µM) | -0.0616 | -0.0475 | -0.0401 | -0.109 | 0.654 | 0.505 | 0.696 | 0.971 | 0.798 | 0.966 | 0.281 | 0.86 | 0.533 | 0.565 | 0.422 | 0.964 | 0.866 | 0.548 | 0.785 | 0.874
8 | CC1(C)CCC(CN2CCN(c3ccc(C(=O)NS(=O)(=O)c4ccc(NCC5CCOCC5)c([N+](=O)[O-])c4)c(Oc4cnc5[nH]ccc5c4)c3)CC2)=C(c2ccc(Cl)cc2)C1 [Venetoclax] + C[C@@H]1COCCN1C2=NC(=NC(=C2)C3(CC3)[S@](=N)(=O)C)C4=C5C=CNC5=NC=C4 [AZD6738] (first compound max 1 µM, 7x7, partner max 10 µM) | -0.003 | -0.0444 | -0.0111 | 0.0026 | 0.617 | 0.556 | 0.618 | 0.897 | 0.767 | 0.712 | 0.349 | 0.909 | 0.464 | 0.329 | 0.387 | 0.804 | 0.795 | 0.69 | 0.681 | 0.869
9 | CN(C)CCCOc1ccc(-c2ccc3ncc4c(c3c2)n(C2CCOCC2)c(=O)n4C)cn1 [AZD0156] + O=C(c1cc(Cc2n[nH]c(=O)c3ccccc23)ccc1F)N1CCN(C(=O)C2CC2)CC1 [Olaparib] (first compound max 3 µM, partner max 3 µM) | 0.145 | 0.0073 | 0.0352 | 0.0795 | 0.206 | 0.322 | 0.354 | 0.497 | 0.693 | 0.316 | 0.0677 | 0.296 | 0.383 | 0.206 | 0.339 | 0.411 | 0.378 | 0.234 | 0.441 | 0.284
10 | Cc1cc2ncnn2cc1Nc1ncc2c(n1)n(C1CCOCC1)c(=O)n2C [AZD7648] + C[C@@H]1COCCN1C2=NC(=NC(=C2)C3(CC3)[S@](=N)(=O)C)C4=C5C=CNC5=NC=C4 [AZD6738] (first compound max 10 µM, 7x7, partner max 10 µM) | 0.0565 | 0.0012 | 0.0121 | -0.0014 | 0.531 | 0.5 | 0.469 | 0.905 | 0.813 | 0.71 | 0.286 | 0.923 | 0.442 | 0.267 | 0.408 | 0.841 | 0.863 | 0.686 | 0.609 | 0.865
11 | COc1cccc(OCCCN)c1-c1cc(Nc2cnc(C#N)cn2)n[nH]1 [Prexasertib] + CCc1c2c(nc3ccc(O)cc13)-c1cc3c(c(=O)n1C2)COC(=O)[C@]3(O)CC [SN-38] (first compound max 1 µM, 7x7, partner max 0.3 µM) | 0.0061 | 0.0373 | -0.0118 | 0.0348 | 0.881 | 0.721 | 0.896 | 1 | 0.847 | 1 | 0.662 | 0.901 | 0.669 | 0.763 | 0.724 | 0.966 | 0.96 | 0.966 | 0.823 | 0.909
12 | Cc1cc2ncnn2cc1Nc1ncc2c(n1)n(C1CCOCC1)c(=O)n2C [AZD7648] + O=C(c1cc(Cc2n[nH]c(=O)c3ccccc23)ccc1F)N1CCN(C(=O)C2CC2)CC1 [Olaparib] (first compound max 10 µM, 7x7, partner max 10 µM) | -0.0164 | -0.0103 | -0.0492 | -0.0481 | 0.167 | 0.138 | 0.337 | 0.24 | 0.533 | 0.344 | 0.119 | 0.265 | 0.252 | 0.0602 | 0.241 | 0.314 | 0.232 | 0.198 | 0.31 | 0.242
13 | COc1nnc2ccc(N3CCC(c4ccc(OCCN5CCN(C)C(=O)[C@H]5C)cc4)CC3)nn12 [AZD5153] + C=CCn1c(=O)c2cnc(Nc3ccc(N4CCN(C)CC4)cc3)nc2n1-c1cccc(C(C)(C)O)n1 [AZD1775] (first compound max 1 µM, partner max 1 µM) | 0.0105 | -0.0631 | -0.0474 | -0.0526 | 0.892 | 0.645 | 0.678 | 0.912 | 0.656 | 0.863 | 0.283 | 0.956 | 0.709 | 0.397 | 0.782 | 0.928 | 0.825 | 0.395 | 0.674 | 0.841
